Results: patent US8735414B2 (priority 2009, dated 2014)
pIC50: −log10 of the molar value.

What was measured:
[1] = tested on: bicistronic HCV replicon (replicon RNA, GenBank Accession No. AJ242654); experiment: HCV Replicon Assay; assay type: cell-based; conditions: Hepatitis C virus, 72 h, read-out: Replicon IC50

SMILES	pIC50 [1]	melting point [°C]
Cc1cc2c(cc1F)cc(-c1ccc(S(=O)(=O)N[C@@H](C)C(F)(F)F)cn1)n2-c1ccnc(F)c1 [compound 944, 6-[5-fluoro-1-(2-fluoropyridin-4-yl)-6-methyl-1H-indol-2-yl]-N-[(2S)-1,1,1-trifluoropropan-2-yl]pyridine-3-sulfonamide]	5.70 to 6.30	176 to 180
CC(C)NS(=O)(=O)c1ccc(-c2c(C#N)c3cc(OC(F)F)ccc3n2C2CCCC2)nc1 [compound 21, 6-[3-cyano-1-cyclopentyl-5-(difluoromethoxy)-1H-indol-2-yl]-N-(propan-2-yl)pyridine-3-sulfonamide]	> 6.30	177 to 179
C[C@H](NS(=O)(=O)c1cnc(-c2c(C#N)c3ccc(OC(F)F)cc3n2C2CCCCC2)nc1)C(F)(F)F [compound 472, 2-[3-cyano-1-cyclohexyl-6-(difluoromethoxy)-1H-indol-2-yl]-N-[(2S)-1,1,1-trifluoropropan-2-yl]pyrimidine-5-sulfonamide]	> 6.30	187 to 189
CC(C)(C)S(=O)(=O)Nc1ccc(-c2c(C#N)c3cc(F)c(C4CC4)cc3n2-c2ccccc2)cn1 [compound 1101, N-[5-(3-cyano-6-cyclopropyl-5-fluoro-1-phenyl-1H-indol-2-yl)pyridin-2-yl]-2-methylpropane-2-sulfonamide]	5.70 to 6.30	249 to 250
N#Cc1c(-c2ncc(S(=O)(=O)NC(CF)CF)cn2)n(C2CCC2)c2cc(F)ccc12 [compound 163, 2-(3-cyano-1-cyclobutyl-6-fluoro-1H-indol-2-yl)-N-(1,3-difluoropropan-2-yl)pyrimidine-5-sulfonamide]	5.70 to 6.30	193 to 195
CCc1cc2c(cc1F)c(C(N)=O)c(-c1ccc(S(=O)(=O)N[C@@H](C)C(F)(F)F)cn1)n2-c1ccc(C)cc1 [compound 1021, 6-ethyl-5-fluoro-1-(4-methylphenyl)-2-(5-{[(2S)-1,1,1-trifluoropropan-2-yl]sulfamoyl}pyridin-2-yl)-1H-indole-3-carboxamide]	> 6.30	228 to 233
CC(C)(CF)NS(=O)(=O)c1ccc(-c2c(C#N)c3ccc(OC(F)F)cc3n2C2CCCC2)nc1 [compound 67, 6-[3-cyano-1-cyclopentyl-6-(difluoromethoxy)-1H-indol-2-yl]-N-(1-fluoro-2-methylpropan-2-yl)pyridine-3-sulfonamide]	> 6.30	224 to 229
Cc1ccc2c(C#N)c(-c3ccc(S(=O)(=O)N[C@@H](C)C(F)(F)F)cn3)n(C(C)C)c2c1 [compound 355, 6-[3-cyano-6-methyl-1-(propan-2-yl)-1H-indol-2-yl]-N-[(2S)-1,1,1-trifluoropropan-2-yl]pyridine-3-sulfonamide]	> 6.30	211 to 216
CC(C)n1c(-c2ccc(S(=O)(=O)N[C@@H](C)C(F)(F)F)cn2)c(C#N)c2cc(F)c(OC(F)F)cc21 [compound 936, 6-[3-cyano-6-(difluoromethoxy)-5-fluoro-1-(propan-2-yl)-1H-indol-2-yl]-N-[(2S)-1,1,1-trifluoropropan-2-yl]pyridine-3-sulfonamide]	> 6.30	184 to 188
CCc1cc2c(cc1F)c(C(N)=O)c(-c1ccc(S(=O)(=O)NC(C)(C)C(F)(F)F)cn1)n2C1CCCC1 [compound 871, 1-cyclopentyl-6-ethyl-5-fluoro-2-{5-[(1,1,1-trifluoro-2-methylpropan-2-yl)sulfamoyl]pyridin-2-yl}-1H-indole-3-carboxamide]	> 6.30	185 to 188
CC(NS(=O)(=O)c1cnc(-c2c(C#N)c3ccc(OC(F)F)cc3n2C2CCC2)nc1)C(F)(F)F (centres unmarked) [compound 128, 2-[3-cyano-1-cyclobutyl-6-(difluoromethoxy)-1H-indol-2-yl]-N-(1,1,1-trifluoropropan-2-yl)pyrimidine-5-sulfonamide]	> 6.30	227 to 229
N#Cc1c(-c2ccc(S(=O)(=O)NC(CF)CF)cn2)n(C2CCC2)c2cc(OC(F)F)c(F)cc12 [compound 542, 6-[3-cyano-1-cyclobutyl-6-(difluoromethoxy)-5-fluoro-1H-indol-2-yl]-N-(1,3-difluoropropan-2-yl)pyridine-3-sulfonamide]	> 6.30	160 to 164
C[C@H](NS(=O)(=O)c1ccc(-c2c(C#N)c3ccc(OC(F)F)cc3n2C2CCCC2)nc1)C(F)(F)F [compound 589, 6-[3-cyano-1-cyclopentyl-6-(difluoromethoxy)-1H-indol-2-yl]-N-[(2S)-1,1,1-trifluoropropan-2-yl]pyridine-3-sulfonamide]	> 6.30	188 to 194
CC(C)NS(=O)(=O)c1ccc(-c2c(C#N)c3cc(F)ccc3n2C2CCOC2)nc1 (centres unmarked) [compound 47, 6-[3-cyano-5-fluoro-1-(tetrahydrofuran-3-yl)-1H-indol-2-yl]-N-(propan-2-yl)pyridine-3-sulfonamide]	> 6.30	185 to 188
Cc1cc2c(cc1O)c(C(N)=O)c(-c1ccc(S(=O)(=O)N[C@@H](C)C(F)(F)F)cn1)n2C1CCCC1 [compound 841, 1-cyclopentyl-5-hydroxy-6-methyl-2-(5-{[(2S)-1,1,1-trifluoropropan-2-yl]sulfamoyl}pyridin-2-yl)-1H-indole-3-carboxamide]	> 6.30	272 to 274
Cc1nc(NS(=O)(=O)C(C)(C)C)ccc1-c1c(C(N)=O)c2cc(F)c(OC(F)F)cc2n1[C@@H](C)C1CC1 [compound 1096, 2-{6-[(tert-butylsulfonyl)amino]-2-methylpyridin-3-yl}-1-[(1S)-1-cyclopropylethyl]-6-(difluoromethoxy)-5-fluoro-1H-indole-3-carboxamide]	> 6.30	147 to 151
C[C@H](NS(=O)(=O)c1ccc(-c2cc3cc(F)c(O)cc3n2C2CCC2)nc1)C(F)(F)F [compound 728, 6-(1-cyclobutyl-5-fluoro-6-hydroxy-1H-indol-2-yl)-N-[(2S)-1,1,1-trifluoropropan-2-yl]pyridine-3-sulfonamide]	5.30 to 5.70	193 to 195
C[C@@H](NS(=O)(=O)c1ccc(-c2c(C#N)c3ccc(OC(F)(F)F)cc3n2C2CCC2)nc1)C(F)(F)F [compound 191, 6-[3-cyano-1-cyclobutyl-6-(trifluoromethoxy)-1H-indol-2-yl]-N-[(2R)-1,1,1-trifluoropropan-2-yl]pyridine-3-sulfonamide]	5.70 to 6.30	171 to 177
Cc1cc2c(cc1F)c(C#N)c(-c1ccc(S(=O)(=O)N[C@@H](C)C(F)(F)F)cn1)n2-c1ncccc1Cl [compound 971, 6-[1-(3-chloropyridin-2-yl)-3-cyano-5-fluoro-6-methyl-1H-indol-2-yl]-N-[(2S)-1,1,1-trifluoropropan-2-yl]pyridine-3-sulfonamide]	5.70 to 6.30	221 to 225
CCc1ccc2c(C#N)c(-c3ccc(S(=O)(=O)NC(CF)CF)cn3)n(C3CCCC3)c2c1 [compound 310, 6-(3-cyano-1-cyclopentyl-6-ethyl-1H-indol-2-yl)-N-(1,3-difluoropropan-2-yl)pyridine-3-sulfonamide]	> 6.30	204.5 to 205
C[C@@H](NS(=O)(=O)c1ccc(-c2c(C#N)c3cc(F)ccc3n2C2CCC2)nc1)C(F)(F)F [compound 219, 6-(3-cyano-1-cyclobutyl-5-fluoro-1H-indol-2-yl)-N-[(2R)-1,1,1-trifluoropropan-2-yl]pyridine-3-sulfonamide]	> 6.30	109 to 110
C[C@H](NS(=O)(=O)c1ccc(-c2c(C#N)c3cc(Cl)ccc3n2C2CCC2)nc1)C(F)(F)F [compound 376, 6-(5-chloro-3-cyano-1-cyclobutyl-1H-indol-2-yl)-N-[(2S)-1,1,1-trifluoropropan-2-yl]pyridine-3-sulfonamide]	> 6.30	193 to 198
Cc1c(F)cc2c(C#N)c(-c3ncc(S(=O)(=O)NC(CF)CF)cn3)n(C3CCCC3)c2c1F [compound 656, 2-(3-cyano-1-cyclopentyl-5,7-difluoro-6-methyl-1H-indol-2-yl)-N-(1,3-difluoropropan-2-yl)pyrimidine-5-sulfonamide]	> 6.30	230 to 234
C[C@@H](NS(=O)(=O)c1ccc(-c2c(C#N)c3cc(F)ccc3n2-c2ncccn2)nc1)C(F)(F)F [compound 673, 6-[3-cyano-5-fluoro-1-(pyrimidin-2-yl)-1H-indol-2-yl]-N-[(2R)-1,1,1-trifluoropropan-2-yl]pyridine-3-sulfonamide]	> 6.30	202 to 205
CC(C)NS(=O)(=O)c1cnc(-c2c(C(N)=O)c3ccc(OC(F)(F)F)cc3n2C2CCCC2)nc1 [compound 782, 1-cyclopentyl-2-[5-(propan-2-ylsulfamoyl)pyrimidin-2-yl]-6-(trifluoromethoxy)-1H-indole-3-carboxamide]	> 6.30	238 to 241
Cc1ccc2c(C#N)c(-c3ccc(S(=O)(=O)NC4(C(F)(F)F)CC4)cn3)n(CC3CC3)c2c1 [compound 255, 6-[3-cyano-1-(cyclopropylmethyl)-6-methyl-1H-indol-2-yl]-N-[1-(trifluoromethyl)cyclopropyl]pyridine-3-sulfonamide]	> 6.30	191 to 195
COc1ccc2c(C#N)c(-c3ncc(S(=O)(=O)NC(CF)CF)cn3)n(C3CCC3)c2c1 [compound 230, 2-(3-cyano-1-cyclobutyl-6-methoxy-1H-indol-2-yl)-N-(1,3-difluoropropan-2-yl)pyrimidine-5-sulfonamide]	> 6.30	217 to 219
COc1cc2c(cc1F)c(C#N)c(-c1ccc(S(=O)(=O)NC(CF)CF)cn1)n2CC1CC1 [compound 225, 6-[3-cyano-1-(cyclopropylmethyl)-5-fluoro-6-methoxy-1H-indol-2-yl]-N-(1,3-difluoropropan-2-yl)pyridine-3-sulfonamide]	> 6.30	196 to 199
